Our source for the IC50 values is patent US20250368649A1, “TETRAHYDROPYRIDOPYRIMIDINE PAN-KRAS INHIBITORS” (Mirati Therapeutics, Inc., priority 2022, published 2025).

One assay has as its target KRas Q61H (Homo sapiens, UniProt P01116, Q61H). The experiment in a line: KRas binding assay (TR-FRET displacement), KRas Q61H. To be noted: TR-FRET displacement. On the technique in general: In TR-FRET formats the signal depends on donor and acceptor labels being close together.
The target in the next assay is KRas G13D (Homo sapiens, UniProt P01116, G13D). Format: binding. The settings on record: TR-FRET displacement, read-out: Binding to KRas (IC50 nM) G13D.
The target of another assay is KRas G12D (Homo sapiens, UniProt P01116, G12D). Nature of the assay: biochemical. To be noted: Binding to KRas (IC50 nM) G12D, TR-FRET displacement, KRas G12D.
A further assay addresses KRas G12C (Homo sapiens, UniProt P01116, G12C). Format: binding. To be noted: TR-FRET displacement, read-out: Binding to KRas (IC50 nM) G12C.
In a further assay the target is KRas G12V (Homo sapiens, UniProt P01116, G12V). Nature of the assay: biochemical. The settings on record: Binding to KRas (IC50 nM) G12V, TR-FRET displacement, KRas G12V.
The target in another assay is KRas WT (Homo sapiens, UniProt P01116). The experiment in a line: KRas binding assay (TR-FRET displacement), KRas WT. The settings on record: TR-FRET displacement.
A further assay concerns the target KRas G12A (Homo sapiens, UniProt P01116, G12A). Format: binding. The settings on record: TR-FRET displacement, read-out: Binding to KRas (IC50 nM) G12A.
Another assay addresses KRas G12S (Homo sapiens, UniProt P01116, G12S). The format is binding. The settings on record: TR-FRET displacement, read-out: Binding to KRas (IC50 nM) G12S.

Sequence of KRas G12D (P01116 1-169 isoform P01116-2 G12D): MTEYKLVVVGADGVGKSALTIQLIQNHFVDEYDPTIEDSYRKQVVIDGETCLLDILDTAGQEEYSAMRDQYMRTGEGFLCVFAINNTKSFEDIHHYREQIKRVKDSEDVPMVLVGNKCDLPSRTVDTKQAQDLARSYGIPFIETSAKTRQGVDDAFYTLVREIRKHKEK
Sequence of KRas G12C (P01116 1-169 isoform P01116-2 G12C): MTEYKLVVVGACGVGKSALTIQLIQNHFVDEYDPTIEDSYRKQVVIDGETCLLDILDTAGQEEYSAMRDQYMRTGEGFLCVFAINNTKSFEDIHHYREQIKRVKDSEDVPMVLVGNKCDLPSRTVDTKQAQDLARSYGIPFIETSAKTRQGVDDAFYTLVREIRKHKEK
Sequence of KRas G12A (P01116 1-169 isoform P01116-2 G12A): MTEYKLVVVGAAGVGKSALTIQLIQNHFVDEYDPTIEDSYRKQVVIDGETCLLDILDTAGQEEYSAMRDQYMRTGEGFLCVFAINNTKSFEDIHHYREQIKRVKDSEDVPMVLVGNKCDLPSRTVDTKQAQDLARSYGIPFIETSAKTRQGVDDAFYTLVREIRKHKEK
Sequence of KRas Q61H (P01116 1-169 isoform P01116-2 Q61H): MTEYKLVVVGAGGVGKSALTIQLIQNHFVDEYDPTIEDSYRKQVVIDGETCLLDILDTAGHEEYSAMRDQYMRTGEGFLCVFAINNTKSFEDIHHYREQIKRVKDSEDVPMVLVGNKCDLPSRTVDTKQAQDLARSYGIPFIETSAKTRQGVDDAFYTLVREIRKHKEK
Sequence of KRas G12V (P01116 1-169 isoform P01116-2 G12V): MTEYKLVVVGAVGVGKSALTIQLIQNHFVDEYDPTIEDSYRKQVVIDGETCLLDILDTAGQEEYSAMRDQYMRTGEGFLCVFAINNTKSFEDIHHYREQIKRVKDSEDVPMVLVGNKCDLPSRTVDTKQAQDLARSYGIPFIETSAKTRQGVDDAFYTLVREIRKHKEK
Sequence of KRas G13D (P01116 1-169 isoform P01116-2 G13D): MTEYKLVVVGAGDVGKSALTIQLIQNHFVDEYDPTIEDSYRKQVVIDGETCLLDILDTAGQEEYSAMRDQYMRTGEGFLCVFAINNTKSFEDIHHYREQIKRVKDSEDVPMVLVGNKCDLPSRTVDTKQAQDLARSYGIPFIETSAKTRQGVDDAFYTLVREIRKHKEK
Sequence of KRas G12S (P01116 1-169 isoform P01116-2 G12S): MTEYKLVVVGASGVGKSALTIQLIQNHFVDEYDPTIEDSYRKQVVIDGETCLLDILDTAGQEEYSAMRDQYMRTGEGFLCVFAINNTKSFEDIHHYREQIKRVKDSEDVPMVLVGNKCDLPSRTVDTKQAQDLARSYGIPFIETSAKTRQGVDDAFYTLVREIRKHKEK
Sequence of KRas WT (P01116 1-169 isoform P01116-2): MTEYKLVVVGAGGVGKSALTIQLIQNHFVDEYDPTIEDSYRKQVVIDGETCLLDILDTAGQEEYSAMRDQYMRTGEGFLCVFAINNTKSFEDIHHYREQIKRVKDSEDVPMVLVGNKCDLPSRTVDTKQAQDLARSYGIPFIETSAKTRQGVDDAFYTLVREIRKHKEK

Take `CCc1cccc2cccc(N3CCc4c(nc(OCC5(CN(C)C)CC5)nc4NCc4nc(-c5ccncc5)no4)C3)c12` [Example 530, 2-((1-((dimethylamino)methyl)cyclopropyl)methoxy)-7-(8-ethylnaphthalen-1-yl)-N-((3-(pyridin-4-yl)-1,2,4-oxadiazol-5-yl)methyl)-5,6,7,8-tetrahydropyrido[3,4-d]pyrimidin-4-amine]: the IC50 at KRas Q61H was 3080 nM; at KRas G13D, 3470 nM; on KRas G12D it was 6680 nM; at KRas G12C, 1030 nM; at KRas G12V it was 7530 nM; at KRas WT, 2660 nM. The IC50 is 1920 nM on KRas G12A and 1070 nM at KRas G12S.
As for `CCc1cccc2cccc(N3CCc4c(nc(OCC5(CN(C)C)CC5)nc4NCc4nnc(C5CCCO5)[nH]4)C3)c12` (centres unmarked) [Example 531, 2-((1-((dimethylamino)methyl)cyclopropyl)methoxy)-7-(8-ethylnaphthalen-1-yl)-N-((5-(tetrahydrofuran-2-yl)-4H-1,2,4-triazol-3-yl)methyl)-5,6,7,8-tetrahydropyrido[3,4-d]pyrimidin-4-amine], the IC50 on KRas Q61H was 22400 nM; at KRas G13D it was 24900 nM; on KRas G12D it was 6830 nM; at KRas G12C, 9540 nM; on KRas G12V, 5700 nM; at KRas WT, 17000 nM. In addition, the IC50 stood at 17200 nM at KRas G12A and 19900 nM at KRas G12S.
In the case of `CCc1cccc2cccc(N3CCc4c(nc(OCC5(CN(C)C)CC5)nc4N4CCOC(c5n[nH]c(CO)n5)C4)C3)c12` (centres unmarked) [Example 532, (3-(4-(2-((1-((dimethylamino)methyl)cyclopropyl)methoxy)-7-(8-ethylnaphthalen-1-yl)-5,6,7,8-tetrahydropyrido[3,4-d]pyrimidin-4-yl)morpholin-2-yl)-1H-1,2,4-triazol-5-yl)methanol], the IC50 on KRas Q61H was 901 nM; at KRas G13D it was 1150 nM; at KRas G12D, 7260 nM; on KRas G12C, 370 nM; on KRas G12V, 756 nM; on KRas WT it was 910 nM. Moreover, the results for the IC50 at KRas G12A and on KRas G12S were 649 nM and 700 nM, respectively.
Turning to `CCc1cccc2cccc(N3CCc4c(nc(OCC5(CN(C)C)CC5)nc4NCc4nnnn4C4CCC4)C3)c12` [Example 533, N-((1-cyclobutyl-1H-tetrazol-5-yl)methyl)-2-((1-((dimethylamino)methyl)cyclopropyl)methoxy)-7-(8-ethylnaphthalen-1-yl)-5,6,7,8-tetrahydropyrido[3,4-d]pyrimidin-4-amine], the IC50 on KRas Q61H is 9980 nM; at KRas G13D, 12300 nM; at KRas G12D it was 7360 nM; on KRas G12C it was 3860 nM; at KRas G12V, 2680 nM; at KRas WT, 7620 nM. In addition, the IC50 on KRas G12A turned out to be 5970 nM; on KRas G12S it was 4920 nM.
On to `CCc1cccc2cccc(N3CCc4c(nc(OCC5(CN(C)C)CC5)nc4N4Cc5cn[nH]c5CC(C)C4)C3)c12` (centres unmarked) [Example 534, 1-(1-(((7-(8-ethylnaphthalen-1-yl)-4-(7-methyl-4,6,7,8-tetrahydropyrazolo[4,3-c]azepin-5(1H)-yl)-5,6,7,8-tetrahydropyrido[3,4-d]pyrimidin-2-yl)oxy)methyl)cyclopropyl)-N,N-dimethylmethanamine], for which the IC50 turned out to be 14600 nM at KRas Q61H; 18200 nM at KRas G13D; 7370 nM at KRas G12D; 4900 nM on KRas G12C; 3540 nM on KRas G12V; 12100 nM on KRas WT. Further, the IC50 on KRas G12A amounted to 9380 nM; on KRas G12S, 9330 nM.
With `CCc1cccc2cccc(N3CCc4c(nc(OCC5(CN(C)C)CC5)nc4N4CCCC(n5ccc(C)n5)C4)C3)c12` (centres unmarked) [Example 535, 1-(1-(((7-(8-ethylnaphthalen-1-yl)-4-(3-(3-methyl-1H-pyrazol-1-yl)piperidin-1-yl)-5,6,7,8-tetrahydropyrido[3,4-d]pyrimidin-2-yl)oxy)methyl)cyclopropyl)-N,N-dimethylmethanamine], the IC50 on KRas Q61H amounted to 6460 nM; on KRas G13D, 6190 nM; on KRas G12D, 7570 nM; on KRas G12C, 1830 nM; at KRas G12V, 4710 nM; at KRas WT, 5320 nM. Moreover, the IC50 on KRas G12A was determined as 2980 nM; on KRas G12S, 5060 nM.
For `CCc1cccc2cccc(N3CCc4c(nc(OCC5(CN(C)C)CC5)nc4N4CCN(C(=O)c5c[nH]c(=O)[nH]5)CC4)C3)c12` [Example 536, 4-(4-(2-((1-((dimethylamino)methyl)cyclopropyl)methoxy)-7-(8-ethylnaphthalen-1-yl)-5,6,7,8-tetrahydropyrido[3,4-d]pyrimidin-4-yl)piperazine-1-carbonyl)-1,3-dihydro-2H-imidazol-2-one], the IC50 was 2170 nM on KRas Q61H; 3080 nM on KRas G13D; 7950 nM on KRas G12D; 4650 nM at KRas G12C; 3020 nM on KRas G12V; 3050 nM on KRas WT. Also, the figures for the IC50 at KRas G12A and at KRas G12S were 4690 nM and 7720 nM, respectively.
For `CCc1cccc2cccc(N3CCc4c(nc(OCC5(CN(C)C)CC5)nc4N(C)Cc4nnnn4C)C3)c12` [Example 537, 2-((1-((dimethylamino)methyl)cyclopropyl)methoxy)-7-(8-ethylnaphthalen-1-yl)-N-methyl-N-((1-methyl-1H-tetrazol-5-yl)methyl)-5,6,7,8-tetrahydropyrido[3,4-d]pyrimidin-4-amine], the IC50 on KRas Q61H is more than 100000 nM; on KRas G13D it was more than 100000 nM; on KRas G12D it was 8520 nM; on KRas G12C, 3700 nM; on KRas G12V, 3180 nM; on KRas WT it was 26700 nM. Further, the results for the IC50 on KRas G12A and on KRas G12S were 43500 nM and 5660 nM, respectively.
As to `CCc1cccc2cccc(N3CCc4c(nc(OCC5(CN(C)C)CC5)nc4N(C)Cc4nnc5n4CCOC5)C3)c12` [Example 538, N-((5,6-dihydro-8H-[1,2,4]triazolo[3,4-c][1,4]oxazin-3-yl)methyl)-2-((1-((dimethylamino)methyl)cyclopropyl)methoxy)-7-(8-ethylnaphthalen-1-yl)-N-methyl-5,6,7,8-tetrahydropyrido[3,4-d]pyrimidin-4-amine], the IC50 on KRas Q61H worked out at 4350 nM; on KRas G13D, 4360 nM; at KRas G12D, 9040 nM; at KRas G12C, 1330 nM; on KRas G12V, 1860 nM; at KRas WT, 3000 nM. For the same compound, the IC50 at KRas G12A was found to be 2530 nM; at KRas G12S, 2780 nM.
On to `CCc1cccc2cccc(N3CCc4c(nc(OCC5(CN(C)C)CC5)nc4NCc4cc(CO)[nH]n4)C3)c12` [Example 539, (3-(((2-((1-((dimethylamino)methyl)cyclopropyl)methoxy)-7-(8-ethylnaphthalen-1-yl)-5,6,7,8-tetrahydropyrido[3,4-d]pyrimidin-4-yl)amino)methyl)-1H-pyrazol-5-yl)methanol], for which the IC50 was determined as 41300 nM on KRas Q61H; 42200 nM on KRas G13D; 9320 nM on KRas G12D; 8970 nM on KRas G12C; 5880 nM on KRas G12V; 19900 nM at KRas WT. The IC50 is 17100 nM on KRas G12A and 20700 nM at KRas G12S.

The term IC50 denotes the midpoint of a concentration-inhibition curve.
